Assay results from article PMC7762955, “Antibiotic binding releases autoinhibition of the TipA multidrug-resistance transcriptional regulator” (The Journal of Biological Chemistry, 2020).
Where a chain is given by its changes, count along the chain named.

Assays:
[1] = target: I112A/F123A mutant of TipAL (Streptomyces lividans, UniProt P0A4T9, F123A/I112A); assay: Isothermal titration calorimetry, thiopeptide binding to I112A/F123A TipAL
Description: (§1) The ITC binding studies of the nosiheptide (Sigma) with WT TipAL and its mutants were performed using an ITC200 (GE Healthcare) at 298 K using a previously described protocol ([38]), with 60 μl of nosiheptide solution in the injector cell and 260 μl of protein solution in the sample cell. The injection volumes were set to […] for all experiments, and two consecutive injections were separated by 2 min to reset the baseline. The control experiments, in which nosiheptide was titrated against the buffer, were also conducted, and the results were subtracted from the results of each standard experiment for adjustments. Three replicates were performed for each reaction. The final data were processed with a one-site fitting model using Microcal-Origin (OriginLab Corp, Northampton, MA, USA).

[2] = target: T1, F123A/F126A mutant of TipAL (Streptomyces lividans, UniProt P0A4T9, F123A/F126A); assay: Isothermal titration calorimetry, thiopeptide binding to F123A/F126A TipAL
Description: as §1

[3] = target: T2, F123A mutant of TipAL (Streptomyces lividans, UniProt P0A4T9, F123A); assay: Isothermal titration calorimetry, thiopeptide binding to F123A TipAL
Description: as §1

[4] = target: WT TipAL (Streptomyces lividans, UniProt P0A4T9); assay: Isothermal titration calorimetry, thiopeptide binding to WT TipAL
WT TipAL, sequence (P0A4T9 whole entry): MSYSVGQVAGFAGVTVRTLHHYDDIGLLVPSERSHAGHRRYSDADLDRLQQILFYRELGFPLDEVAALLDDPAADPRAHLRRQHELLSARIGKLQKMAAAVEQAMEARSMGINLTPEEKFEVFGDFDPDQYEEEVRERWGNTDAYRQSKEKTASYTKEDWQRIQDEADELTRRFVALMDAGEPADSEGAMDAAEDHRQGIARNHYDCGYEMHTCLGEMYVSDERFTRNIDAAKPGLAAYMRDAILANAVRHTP
Description: as §1

[5] = target: T2, F123A mutant of TipAL; assay: FPA, thiostrepton-induced activation of F123A TipAL-ptipA binding; assay type: biochemical; conditions: thiostrepton 1:1, 15 min
Description: (§2) FPAs were performed in buffer consisting of 20 mM Tris-HCl, pH 7.5, 200 mM NaCl and 5% (v/v) glycerol at 298 K using a SpectraMax M5 microplate reader system (Molecular Devices, San Jose, CA, USA). The wavelengths of fluorescence excitation and emission were 486 and 525 nm, respectively. 26-bp dsDNA from the −10 and −35 regions of the tipA, mta, and skgA promoters with the sequences […], […], and […] were synthesized with a 5′-carboxyfluorescein label for the respective assays with TipAL, Mta, and SkgA proteins. For assays with thiostrepton supplementation, proteins were incubated with thiostrepton (Sigma) at a 1:1 ratio for 15 min prior to mixing with DNA in wells. Each well of a 384-well plate contained 10 nM of a fluorescently labeled DNA probe and different amounts of proteins with a final volume of 80 μl. DNA-free controls were included, and three replicates were performed for each reaction for each assay. The fluorescence polarization ΔP (in mP units) was calculated and fitted according to a one-site specific binding model using GraphPad Prism7 (GraphPad Software) with the function ΔP = ΔPmax[protein]/(Kd + [protein]).

[6] = target: T1, F123A/F126A mutant of TipAL; assay: FPA, thiostrepton-induced activation of F123A/F126A TipAL-ptipA binding; assay type: biochemical; conditions: thiostrepton 1:1, 15 min
Description: as §2
Target sequence in this assay (P0A4T9 whole entry F123A/F126A): as the sequence (P0A4T9 whole entry) above, with F123A, F126A counted along it

[7] = tested on: TipAL; assay: FPA, thiostrepton-induced activation of TipAL-ptipA binding; assay type: biochemical, Streptomyces lividans; conditions: WT TipAL with vs without thiostrepton (1:1, 15 min)
Description: as §2

[8] = target: T3, TipAL F123A (Streptomyces lividans, UniProt P0A4T9 1-253, F123A); assay: fluorescence polarization; thiostrepton 1:1; 20 mM Tris-HCl pH 7.5, 200 mM NaCl, 5% (v/v) glycerol, 298 K; 10 nM labeled DNA; conditions: protein: recombinant; tags: His6 (pET-28a); chain copies: 2; label: 5'-carboxyfluorescein; blunt
T3 sequence: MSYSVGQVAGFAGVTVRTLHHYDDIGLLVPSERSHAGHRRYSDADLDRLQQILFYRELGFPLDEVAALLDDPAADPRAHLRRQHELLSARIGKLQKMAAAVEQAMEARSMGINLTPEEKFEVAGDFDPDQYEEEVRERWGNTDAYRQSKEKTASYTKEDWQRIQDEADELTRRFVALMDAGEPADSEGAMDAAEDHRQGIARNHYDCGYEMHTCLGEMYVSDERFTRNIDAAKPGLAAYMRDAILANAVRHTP

[9] = target: T4, TipAL I112A/F123A (Streptomyces lividans, UniProt P0A4T9 1-253, I112A;F123A); assay: as above; conditions: protein: recombinant; tags: His6 (pET-28a); chain copies: 2; label: 5'-carboxyfluorescein; blunt
T4 sequence: T3 sequence with I112A

[10] = target: T5, TipAL (Streptomyces lividans, UniProt P0A4T9 1-253); assay: as above; conditions: protein: recombinant; tags: His6 (pET-28a); chain copies: 2; label: 5'-carboxyfluorescein; blunt
T5 sequence: T3 sequence with A123F

[11] = target: T6, TipAL F123A/F126A (Streptomyces lividans, UniProt P0A4T9 1-253, F123A;F126A); assay: as above; conditions: protein: recombinant; tags: His6 (pET-28a); chain copies: 2; label: 5'-carboxyfluorescein; blunt
T6 sequence: T3 sequence with F126A

[12] = target: T7, TipAH7 (Streptomyces lividans, UniProt P0A4T9 1-140); assay: fluorescence polarization; no thiostrepton; 20 mM Tris-HCl pH 7.5, 200 mM NaCl, 5% (v/v) glycerol, 298 K; 10 nM labeled DNA; conditions: protein: recombinant; tags: His6 (pET-28a); chain copies: 2; label: 5'-carboxyfluorescein; blunt
T7 sequence: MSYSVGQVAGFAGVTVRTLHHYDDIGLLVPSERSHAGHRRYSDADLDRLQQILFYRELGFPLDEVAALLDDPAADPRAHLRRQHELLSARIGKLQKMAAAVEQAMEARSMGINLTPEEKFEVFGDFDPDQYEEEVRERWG

[13] = target: T8, TipAN (Streptomyces lividans, UniProt P0A4T9 1-109); assay: as above; conditions: protein: recombinant; tags: His6 (pET-28a); chain copies: 2; label: 5'-carboxyfluorescein; blunt
T8 sequence: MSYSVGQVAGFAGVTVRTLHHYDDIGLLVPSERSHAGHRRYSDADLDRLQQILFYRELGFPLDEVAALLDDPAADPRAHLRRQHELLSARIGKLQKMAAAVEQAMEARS

[14] = design: method as in PMID 11669632, PMID 14985361; conditions: ref [19], [26]; cited from earlier work
[15] = target: tipA promoter DNA (ptipA); assay: Fluorescence polarization assay, tipA promoter DNA binding; design: species or system Streptomyces lividans; conditions: apo, no antibiotic; FPA, 10 nM 5'-carboxyfluorescein-labeled 26-bp dsDNA, 20 mM Tris-HCl pH 7.5, 200 mM NaCl, 5% glycerol, 298 K; ex 486/em 525 nm; one-site binding fit; three replicates; n.b. = printed in picture, not defined; read-out: Kd, affinity with the tipA promoter DNA (ptipA)
Description: Fluorescence polarization assays (FPAs) were performed to test the structure-based hypothesis that α6–α7 plays a key role in communication between the ligand-binding and DNA-binding regions. […] Parallel experiments were also performed for Mta and SkgA proteins, and consistent results were obtained.
as §2

Which Kd [1] does the source give for `C=C(NC(=O)c1csc(-c2nc3c(cc2O)-c2nc(cs2)C(=O)NC(C(C)O)C(=O)N/C(=C\C)c2nc(cs2)C(=O)NC2CC(O)C(=O)OCc4cccc5[nH]c(c(C)c45)C(=O)SCC(NC(=O)c4csc2n4)c2nc-3cs2)n1)C(N)=O` (stereo not drawn) [thiopeptide, nosiheptide] here?
The Kd was 7510 ± 870 nM.

And the “thiopeptide-binding affinity compared with WT and F123A” value ([1]; I112A/F123A vs WT and F123A TipAL, ITC)?
The value was “without a significant difference”.

And the Kd [2]?
Its Kd is 13200 ± 1360 nM.

And the “decrease in thiopeptide affinity vs WT” value ([2]; F123A/F126A vs WT TipAL, ITC)?
The value was about 2.5 fold.

What about the Kd [3] of the same molecule?
The Kd was 7120 ± 950 nM.

And the “decrease in thiopeptide affinity vs WT” value ([3]; F123A vs WT TipAL, ITC)?
Its value is about 1.4 fold.

What about the Kd [4] of the same molecule?
Its Kd is 5230 ± 840 nM.

With `C=C(NC(=O)C(=C)NC(=O)c1csc(C2=N[C@@H]3c4csc(n4)[C@H]4NC(=O)c5csc(n5)[C@H]([C@](C)(O)[C@@H](C)O)NC(=O)[C@H]5CSC(=N5)/C(=C/C)NC(=O)[C@H]([C@@H](C)O)NC(=O)c5csc(n5)[C@]3(CC2)NC(=O)[C@H](C)NC(=O)C(=C)NC(=O)[C@H](C)NC(=O)[C@H]([C@@H](C)CC)N[C@@H]2C=Cc3c([C@H](C)O)cc(nc3[C@H]2O)C(=O)O[C@@H]4C)n1)C(N)=O` [thiostrepton] as the molecule, how does the “rise in ptipA binding in the presence of thiostrepton” value [5] read?
The value was “did not show such a significant rise”.

What about the “rise in ptipA binding in the presence of thiostrepton” value [6] of the same molecule?
The value was “did not show such a significant rise”.

What about the “increase in ptipA affinity of TipAL by thiostrepton binding” value [7] of the same molecule?
The value was about 12.6 fold.

B1: ptipA (dsDNA)
DNA 1: TTGCACCTCACGTCACGTGAGGAGGC
DNA 2: GCCTCCTCACGTGACGTGAGGTGCAA
For B1, which Kd [8] is on record?
Its Kd is 228 ± 25.9 nM.

And the Kd [9]?
The Kd was 685 ± 97.9 nM.

What about the Kd [10] of the same molecule?
The Kd was 30.2 ± 3.7 nM.

What about the Kd [11] of the same molecule?
Its Kd is 317 ± 51.4 nM.

What about the Kd [12] of the same molecule?
Its Kd is 318 ± 58.5 nM.

And the Kd [13]?
The Kd was 44 ± 5.1 nM.

B2: TipAN: N terminus of TipAL, residues 1–109 (protein)
chain: T8 sequence
modifications: left off: His6, end not stated, state not stated
Which “transcriptional activity in the absence of the TipAS domain” value [14] does the source give for B2 here?
Its value is “constitutively transcriptionally active”.

And the Kd [15]?
Its Kd is 44 ± 5.1 nM.
